Earlier results on one compound are cited in patent US20120040944A1 (APEX LABORATORIES PRIVATE LIMITED, priority 2009, published 2012).

In one series the target is T1, CYP3A4 isozyme (Homo sapiens, UniProt P08684).
T1 construct: host or cells: liver
The note with it: liver.

Assay in series [1]: not given
This is another data set of the same source.

T1 sequence (P08684 whole entry): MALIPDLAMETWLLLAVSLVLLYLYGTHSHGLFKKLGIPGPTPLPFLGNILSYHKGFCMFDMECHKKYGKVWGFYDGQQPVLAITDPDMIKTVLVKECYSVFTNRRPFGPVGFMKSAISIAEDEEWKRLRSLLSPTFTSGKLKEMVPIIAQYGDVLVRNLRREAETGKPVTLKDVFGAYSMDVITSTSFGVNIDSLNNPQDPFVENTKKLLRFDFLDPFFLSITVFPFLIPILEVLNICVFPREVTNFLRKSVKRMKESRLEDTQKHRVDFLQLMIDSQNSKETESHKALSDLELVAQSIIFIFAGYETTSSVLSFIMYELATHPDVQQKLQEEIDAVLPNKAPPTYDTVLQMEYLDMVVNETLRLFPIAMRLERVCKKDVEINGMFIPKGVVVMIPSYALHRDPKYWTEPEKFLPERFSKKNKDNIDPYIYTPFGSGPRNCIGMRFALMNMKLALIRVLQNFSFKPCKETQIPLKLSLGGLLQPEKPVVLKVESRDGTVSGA

In the case of `C[C@@H]1C[C@H]2[C@@H]3CCC4=CC(=O)C=C[C@]4(C)[C@@]3(Cl)[C@@H](O)C[C@]2(C)[C@@]1(OC(=O)c1ccco1)C(=O)CCl` [Mometasone Furoate, 9α,21-dichloro-11β,17-dihydroxy-16α-methylpregna-1,4-diene-3,20-dione 17-(2-furoate)], the “Terminal t½” value (in vivo) was “about 5 h”. In addition, the bioavailability result (inhaled dose compared with IV administration) is listed as “less than 1%”. Further, under “up to 7 days”, the “Excretion in the feces” value is 74% and the “Excretion in the urine” value is reported as 8%. For the same compound, the metabolism result on CYP3A4 isozyme is “primarily and extensively metabolized in the liver by the CYP3A4 isozyme”. The “solubility in ethyl alcohol” value in series [1] (ethyl alcohol) is recorded as “moderately soluble”. Moreover, the solubility in octanol result in series [1] (octanol) was “slightly soluble”. The solubility in water entry in series [1] (water) was “practically insoluble”.
